Test system: participants with SSc-RP
Test: Scleroderma Health Assessment Questionnaire (SHAQ): disability indices and visual analog scales
Format: in vivo, human
Procedure, shortened: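 Participants with SSc-RP completed the SHAQ at screening and each in-clinic visit. Standard and alternative disability indices (eight categories, 0–3; standard adjusts for aids/assistance) plus Raynaud's VAS on interference over the past 7 days. Reported as absolute change from baseline to end of each dosing period.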

[1] = Modified ITT, Part A, dose Cilnidipine 10 mg, Tadalafil 5 mg, or 10 mg + 5 mg
[2] = PP Population, Part A, sensitivity analysis, cilnidipine 10 mg and/or tadalafil 5 mg as labelled
[3] = Tadalafil 5 mg (N = 4), Modified ITT, Part A
[4] = Tadalafil 5 mg (N = 4), patients with diagnosis of SSc, sensitivity analysis, Modified ITT, Part A
[5] = Tadalafil 5 mg, Day 12, PP Population Part A, SSc patients
[6] = Tadalafil 5 mg, Day 12, PP Population, Part A
[7] = Tadalafil 5 mg, PP Population Part A, SSc patients

SMILES: CN1CC(=O)N2[C@H](c3ccc4c(c3)OCO4)c3[nH]c4ccccc4c3C[C@@H]2C1=O [Tadalafil, tadalafil]
- SHAQ alternative disability index, In Clinic Visit (Day 12), Mean [1]: 0.375
- SHAQ alternative disability index, In Clinic Visit (Day 12), Median [1]: 0.250
- SHAQ Visual Analogue Scale - Breathing Problems: Baseline, Mean [2]: 3.240
- SHAQ Visual Analogue Scale - Breathing Problems: Baseline, Median [2]: 3.100
- SHAQ Visual Analogue Scale - Breathing Problems: Change from Baseline (Day 12), Mean [2]: 0.500
- SHAQ Visual Analogue Scale - Breathing Problems: Change from Baseline (Day 12), Median [2]: 1.050
- SHAQ Visual Analogue Scale - Breathing Problems: In-Clinic Visit (Day 12), Mean [2]: 4.300
- SHAQ Visual Analogue Scale - Breathing Problems: In-Clinic Visit (Day 12), Median [2]: 4.000
- SHAQ Visual Analogue Scale - Breathing Problems: Percent Change from Baseline (Day 12), Mean [2]: −2.66%
- SHAQ Visual Analogue Scale - Breathing Problems: Percent Change from Baseline (Day 12), Median [2]: 29.58%
- SHAQ Visual Analogue Scale - Finger Ulcers: Baseline, Mean [2]: 1.700
- SHAQ Visual Analogue Scale - Finger Ulcers: Baseline, Median [2]: 0.100
- SHAQ Visual Analogue Scale - Finger Ulcers: Change from Baseline (Day 12), Mean [2]: 0.250
- SHAQ Visual Analogue Scale - Finger Ulcers: Change from Baseline (Day 12), Median [2]: 0.000
- SHAQ Visual Analogue Scale - Finger Ulcers: In-Clinic Visit (Day 12), Mean [2]: 2.325
- SHAQ Visual Analogue Scale - Finger Ulcers: In-Clinic Visit (Day 12), Median [2]: 0.050
- SHAQ Visual Analogue Scale - Finger Ulcers: Percent Change from Baseline (Day 12), Mean [2]: 6.10%
- SHAQ Visual Analogue Scale - Finger Ulcers: Percent Change from Baseline (Day 12), Median [2]: 6.10%
- SHAQ Visual Analogue Scale - Intestinal Problems: Baseline, Mean [2]: 2.700
- SHAQ Visual Analogue Scale - Intestinal Problems: Baseline, Median [2]: 0.900
- SHAQ Visual Analogue Scale - Intestinal Problems: Change from Baseline (Day 12), Mean [2]: −0.125
- SHAQ Visual Analogue Scale - Intestinal Problems: Change from Baseline (Day 12), Median [2]: 0.000
- SHAQ Visual Analogue Scale - Intestinal Problems: In-Clinic Visit (Day 12), Mean [2]: 3.025
- SHAQ Visual Analogue Scale - Intestinal Problems: In-Clinic Visit (Day 12), Median [2]: 1.450
- SHAQ Visual Analogue Scale - Intestinal Problems: Percent Change from Baseline (Day 12), Mean [2]: −6.92%
- SHAQ Visual Analogue Scale - Intestinal Problems: Percent Change from Baseline (Day 12), Median [2]: 0.00%
- SHAQ Visual Analogue Scale - Overall Disease Severity: Baseline, Mean [2]: 4.100
- SHAQ Visual Analogue Scale - Overall Disease Severity: Baseline, Median [2]: 5.500
- SHAQ Visual Analogue Scale - Overall Disease Severity: Change from Baseline (Day 12), Mean [2]: 0.625
- SHAQ Visual Analogue Scale - Overall Disease Severity: Change from Baseline (Day 12), Median [2]: 0.700
- SHAQ Visual Analogue Scale - Overall Disease Severity: In-Clinic Visit (Day 12), Mean [2]: 5.600
- SHAQ Visual Analogue Scale - Overall Disease Severity: In-Clinic Visit (Day 12), Median [2]: 6.550
- SHAQ Visual Analogue Scale - Overall Disease Severity: Percent Change from Baseline (Day 12), Mean [2]: 32.49%
- SHAQ Visual Analogue Scale - Overall Disease Severity: Percent Change from Baseline (Day 12), Median [2]: 26.79%
- SHAQ Visual Analogue Scale - Raynaud's: Baseline, Mean [2]: 4.860
- SHAQ Visual Analogue Scale - Raynaud's: Baseline, Median [2]: 6.400
- SHAQ Visual Analogue Scale - Raynaud's: Change from Baseline (Day 12), Mean [2]: −0.825
- SHAQ Visual Analogue Scale - Raynaud's: Change from Baseline (Day 12), Median [2]: −0.500
- SHAQ Visual Analogue Scale - Raynaud's: In-Clinic Visit (Day 12), Mean [2]: 4.950
- SHAQ Visual Analogue Scale - Raynaud's: In-Clinic Visit (Day 12), Median [2]: 5.200
- SHAQ Visual Analogue Scale - Raynaud's: Percent Change from Baseline (Day 12), Mean [2]: −19.71%
- SHAQ Visual Analogue Scale - Raynaud's: Percent Change from Baseline (Day 12), Median [2]: −20.67%
- SHAQ Overall Severity: Baseline, Mean [3]: 4.975
- SHAQ Overall Severity: Baseline, Median [3]: 6.000
- SHAQ Overall Severity: Change from Baseline, Mean [3]: 0.625,
- SHAQ Overall Severity: Change from Baseline, Median [3]: 0.700
- SHAQ Overall Severity: Day 12, Mean [3]: 5.600
- SHAQ Overall Severity: Day 12, Median [3]: 6.550
- SHAQ Overall Severity: Percent Change from Baseline, Mean [3]: 32.49%
- SHAQ Overall Severity: Percent Change from Baseline, Median [3]: 26.790%
- SHAQ Standard Disability Index: Baseline, Mean [4]: 0.594
- SHAQ Standard Disability Index: Baseline, Median [4]: 0.625
- SHAQ Standard Disability Index: Change from Baseline, Mean [4]: −0.063
- SHAQ Standard Disability Index: Change from Baseline, Median [4]: −0.063
- SHAQ Standard Disability Index: Day 12, Mean [4]: 0.531
- SHAQ Standard Disability Index: Day 12, Median [4]: 0.563
- SHAQ Standard Disability Index: Percent Change from Baseline, Mean [4]: −9.26%
- SHAQ Standard Disability Index: Percent Change from Baseline, Median [4]: −11.11%
- SHAQ Visual Analogue Scale - Breathing Problems, Change from Baseline, Mean [5]: 0.500
- SHAQ Visual Analogue Scale - Breathing Problems, Change from Baseline, Median [5]: 1.050
- SHAQ Visual Analogue Scale - Breathing Problems, Percent Change from Baseline, Mean [5]: −2.66%
- SHAQ Visual Analogue Scale - Breathing Problems, Percent Change from Baseline, Median [5]: 29.58%
- SHAQ Visual Analogue Scale - Finger Ulcers, Change from Baseline, Mean [5]: 0.250
- SHAQ Visual Analogue Scale - Finger Ulcers, Change from Baseline, Median [5]: 0.000
- SHAQ Visual Analogue Scale - Finger Ulcers, Percent Change from Baseline, Mean [5]: 6.10%
- SHAQ Visual Analogue Scale - Finger Ulcers, Percent Change from Baseline, Median [5]: 6.10%
- SHAQ Visual Analogue Scale - Intestinal Problems, Change from Baseline, Mean [5]: −0.125
- SHAQ Visual Analogue Scale - Intestinal Problems, Change from Baseline, Median [5]: 0.000
- SHAQ Visual Analogue Scale - Intestinal Problems, Percent Change from Baseline, Mean [5]: −6.92%
- SHAQ Visual Analogue Scale - Intestinal Problems, Percent Change from Baseline, Median [5]: 0.00%
- SHAQ Visual Analogue Scale - Overall Disease Severity, Change from Baseline, Mean [5]: 0.625
- SHAQ Visual Analogue Scale - Overall Disease Severity, Change from Baseline, Median [5]: 0.700
- SHAQ Visual Analogue Scale - Overall Disease Severity, Percent Change from Baseline, Mean [5]: 32.49%
- SHAQ Visual Analogue Scale - Overall Disease Severity, Percent Change from Baseline, Median [5]: 26.79%
- SHAQ Visual Analogue Scale - Pain, Change from Baseline, Mean [5]: 1.000
- SHAQ Visual Analogue Scale - Pain, Change from Baseline, Median [5]: 0.800
- SHAQ Visual Analogue Scale - Pain, Percent Change from Baseline, Mean [5]: 31.35%
- SHAQ Visual Analogue Scale - Pain, Percent Change from Baseline, Median [5]: 10.81%
- SHAQ Visual Analogue Scale - Raynaud's, Change from Baseline, Mean [5]: −0.825
- SHAQ Visual Analogue Scale - Raynaud's, Change from Baseline, Median [5]: −0.500
- SHAQ Visual Analogue Scale - Raynaud's, Percent Change from Baseline, Mean [5]: −19.71%
- SHAQ Visual Analogue Scale - Raynaud's, Percent Change from Baseline, Median [5]: −20.67%
- SHAQ Alternative Disability Index: Change from Baseline, Mean [6]: −0.094
- SHAQ Alternative Disability Index: Change from Baseline, Median [6]: −0.125
- SHAQ Alternative Disability Index: In-Clinic Visit (Day 12), Mean [6]: 0.375
- SHAQ Alternative Disability Index: In-Clinic Visit (Day 12), Median [6]: 0.250
- SHAQ Alternative Disability Index: Percent Change from Baseline, Mean [6]: −43.70%
- SHAQ Alternative Disability Index: Percent Change from Baseline, Median [6]: −20.00%
- SHAQ Standard Disability Index: Change from Baseline, Mean [6]: −0.063
- SHAQ Standard Disability Index: Change from Baseline, Median [6]: −0.063
- SHAQ Standard Disability Index: In-Clinic Visit (Day 12), Mean [6]: 0.531
- SHAQ Standard Disability Index: In-Clinic Visit (Day 12), Median [6]: 0.563
- SHAQ Standard Disability Index: Percent Change from Baseline, Mean [6]: −9.26%
- SHAQ Standard Disability Index: Percent Change from Baseline, Median [6]: −11.11%
- SHAQ Visual Analogue Scale - Pain: Change from Baseline, Mean [6]: 1.000
- SHAQ Visual Analogue Scale - Pain: Change from Baseline, Median [6]: 0.800
- SHAQ Visual Analogue Scale - Pain: In-Clinic Visit (Day 12), Mean [6]: 5.300
- SHAQ Visual Analogue Scale - Pain: In-Clinic Visit (Day 12), Median [6]: 5.850
- SHAQ Visual Analogue Scale - Pain: Percent Change from Baseline, Mean [6]: 31.35%
- SHAQ Visual Analogue Scale - Pain: Percent Change from Baseline, Median [6]: 10.81%
- SHAQ Visual Analogue Scale - Breathing Problems, In-Clinic Visit (Day 12), Mean [7]: 4.300
- SHAQ Visual Analogue Scale - Breathing Problems, In-Clinic Visit (Day 12), Median [7]: 4.000
- SHAQ Visual Analogue Scale - Finger Ulcers, In-Clinic Visit (Day 12), Mean [7]: 2.325
- SHAQ Visual Analogue Scale - Finger Ulcers, In-Clinic Visit (Day 12), Median [7]: 0.050
- SHAQ Visual Analogue Scale - Intestinal Problems, In-Clinic Visit (Day 12), Mean [7]: 3.025
- SHAQ Visual Analogue Scale - Intestinal Problems, In-Clinic Visit (Day 12), Median [7]: 1.450
- SHAQ Visual Analogue Scale - Overall Disease Severity, In-Clinic Visit (Day 12), Mean [7]: 5.600
- SHAQ Visual Analogue Scale - Overall Disease Severity, In-Clinic Visit (Day 12), Median [7]: 6.550
- SHAQ Visual Analogue Scale - Pain, In-Clinic Visit (Day 12), Mean [7]: 5.300
- SHAQ Visual Analogue Scale - Pain, In-Clinic Visit (Day 12), Median [7]: 5.850
- SHAQ Visual Analogue Scale - Raynaud's, In-Clinic Visit (Day 12), Mean [7]: 4.950
- SHAQ Visual Analogue Scale - Raynaud's, In-Clinic Visit (Day 12), Median [7]: 5.200

Source: patent publication US20240358693A1, “METHODS OF TREATING PAIN” (Aisa Pharma, Inc., priority 2023, published 2024)
